How the values were obtained:
SK-MEL-2 = test: NCI SRB growth inhibition (single dose 10 µM / five-dose); assay type: cell-based, human; settings: Homo sapiens; for inhibition at 10 µM: SK-MEL-2 (Melanoma), read-out: GI%
Procedure: (§1) Screening of cytotoxic activity against a panel of sixty human tumor cell lines The selected compounds by NCI were evaluated for their anticancer activity in a two- stage process. […] Then, the output from the single dose screen is reported as a mean graph. […] Assay protocol. […] For a typical screening experiment, cells are inoculated into 96 well microtiter plates in 100 µL at plating densities ranging from 5000 to 40,000 cells/well depending on the doubling time of individual cell lines. […] After 24 h, two plates of each cell line are fixed in situ with TCA, to represent a measurement of the cell population for each cell line at the time of drug addition (Tz). The experimental drugs are solubilized in dimethyl sulfoxide at 400-fold the desired final maximum test concentration and stored frozen prior to use. At the time of drug addition, an aliquot of frozen concentrate is thawed and diluted to twice the desired final maximum test concentration with complete medium containing 50 µg/mL gentamicin. Additional four, 10-fold or ½ log serial dilutions are made to provide a total of five drug concentrations plus control. Aliquots of 100 mL of these different drug dilutions are added to the appropriate microtiter wells already containing […] of medium, resulting in the required final drug concentrations. […] For adherent cells, the assay is terminated by the addition of cold TCA. […] The supernatant is discarded, and the plates are washed five times with tap water and air dried. Sulforhodamine B (SRB) solution ([…]) at 0.4% (w/v) in 1% acetic acid is added to each well, and plates are incubated for 10 min at room temperature. After staining, unbound dye is removed by washing five times with 1% acetic acid and the plates are air dried. […] Using the seven absorbance measurements [time zero, (Tz), control growth, (C), and test growth in the presence of drug at the five concentration levels (Ti)], the percentage growth is calculated at each of the drug concentrations levels. Percentage growth inhibition is calculated as: [(Ti Tz)/(C–Tz)] x 100 for concentrations for which Ti>/=Tz and [(Ti-Tz)/Tz] x 100 for concentrations for which Ti < Tz. Three dose response parameters are calculated for each experimental agent. […] The drug concentration resulting in total growth inhibition (TGI) is calculated from Ti = Tz. […] Values are calculated for each of these three parameters if the level of activity is reached; however, if the effect is not reached or is exceeded, the value for that parameter is expressed as greater or less than the maximum or minimum concentration tested.

ACHN = test: as above; assay type: cell-based, human; settings: Homo sapiens; for inhibition at 10 µM: ACHN (Renal cancer), read-out: GI%
Procedure: as §1

OVCAR-4 = test: as above; assay type: cell-based, human; settings: Homo sapiens; for inhibition at 10 µM: OVCAR-4 (Ovarian cancer), read-out: GI%
Procedure: as §1

M14 = test: as above; assay type: cell-based, human; settings: Homo sapiens; for inhibition at 10 µM: M14 (Melanoma), read-out: GI%
Procedure: as §1

RPMI-8226 = test: as above; assay type: cell-based, human; settings: Homo sapiens; for inhibition at 10 µM: RPMI-8226 (Leukemia), read-out: GI%
Procedure: as §1

NCI-H322M = test: as above; assay type: cell-based, human; settings: Homo sapiens; for inhibition at 10 µM: NCI-H322M (Non-small cell lung cancer), read-out: GI%
Procedure: as §1

T-47D = test: as above; assay type: cell-based, human; settings: Homo sapiens, T47D; for inhibition at 10 µM: T-47D (Breast cancer), read-out: GI%
Procedure: as §1

EKVX = test: as above; assay type: cell-based, human; settings: Homo sapiens; for inhibition at 10 µM: EKVX (Non-small cell lung cancer), read-out: GI%
Procedure: as §1

K-562 = test: as above; assay type: cell-based, human; settings: Homo sapiens, K562; for inhibition at 10 µM: K-562 (Leukemia), read-out: GI%
Procedure: as §1

LOX IMVI = test: as above; assay type: cell-based, human; settings: Homo sapiens; for inhibition at 10 µM: LOX IMVI (Melanoma), read-out: GI%
Procedure: as §1

SNB-19 = test: as above; assay type: cell-based, human; settings: Homo sapiens; for inhibition at 10 µM: SNB-19 (CNS cancer), read-out: GI%
Procedure: as §1

DU-145 = test: as above; assay type: cell-based, human; settings: Homo sapiens; for inhibition at 10 µM: DU-145 (Prostate cancer), read-out: GI%
Procedure: as §1

VEGFR-2 = molecular target: T1, VEGFR-2 (Homo sapiens, UniProt P35968); test: VEGFR-2 kinase assay kit (BPS), Kinase-Glo Max luminescence; assay type: biochemical; settings: VEGFR-2, single dose 10 µM, duplicate, mean ± SD
T1 construct: purchased BPS Biosciences 40325
Procedure: 2. Biochemical kinase assay procedure
The inhibitory activity against different kinases was determined using kinase kits […]
from BPS Biosciences and kinase-Glo Max luminescence kinase assay kit (Promega).
The assay was carried out according to the protocol provided by the manufacturer. A stock solution of the synthesized derivatives in 100% DMSO was prepared. Subsequently, the compounds were diluted to 10% DMSO.
A master mixture was prepared according to the number of wells. For VEGFR-2 and FGFR-1 biochemical assays each well include 6 μl of 5x Kinase Buffer 1 + 1 μl of 500 μM ATP + 1 μl of PTK Substrate (Poly-Glu,Tyr 4:1) (10 mg/ml) + 17 μl of distilled water. For BRAF assay each well include 6 μl of 5x Kinase Buffer 1 + 1 μl of ATP (500 μM) + 10 μl of 5X Raf substrate + 8 μl of distilled water. 1x Kinase buffer 1 was prepared by mixing 600 μl of 5x Kinase Buffer 1 with 2400 μl water to give 3 mL. Kinases were thawed on ice and were diluted with 1x Kinase Buffer 1.
To start the biochemical reaction, 25 µL of the master mixture was added to each well in 96 well plate. 5 µL of 10% DMSO was added to positive control wells and blank wells. 5 µL of diluted inhibitor was added to each well labelled with the test inhibitor so that the final concentration of DMSO is 1% in all reactions. Then 20 µL of (1 ng / μl) in case of VEGFR-2 and FGFR-1 or (2.5 ng/μl) in case of BRAF in 1x kinase buffer was added to positive control wells and wells labelled with the inhibitor, while 20 µL 1x kinase buffer 1 was added to the […]
The plate was incubated at 30 °C for 45 min. Subsequently, 50 μl of Kinase-Glo Max luminescence reagent was added to each well and the plate was covered with aluminum foil and incubated at room temperature 15 min. Finally, the luminescence was recorded using multimode microplate reader. Kinase activity assays were performed in duplicate at each […]
The luminescence data were analyzed as follows. The difference between luminescence intensities in the absence of kinase (Lut) and in the presence of kinase (Luc) was defined as 100 % activity (Lut – Luc). Using luminescence signal (Lu) in the presence of the compound, % activity was calculated as: % activity = {(Lut - Lu)/(Lut - Luc)}×100%. The […]
concentration of the test compounds required to reduce the kinase activity by 50% was determined from dose-response curves and recorded as their IC50. […]

T1 sequence (P35968 20-1356): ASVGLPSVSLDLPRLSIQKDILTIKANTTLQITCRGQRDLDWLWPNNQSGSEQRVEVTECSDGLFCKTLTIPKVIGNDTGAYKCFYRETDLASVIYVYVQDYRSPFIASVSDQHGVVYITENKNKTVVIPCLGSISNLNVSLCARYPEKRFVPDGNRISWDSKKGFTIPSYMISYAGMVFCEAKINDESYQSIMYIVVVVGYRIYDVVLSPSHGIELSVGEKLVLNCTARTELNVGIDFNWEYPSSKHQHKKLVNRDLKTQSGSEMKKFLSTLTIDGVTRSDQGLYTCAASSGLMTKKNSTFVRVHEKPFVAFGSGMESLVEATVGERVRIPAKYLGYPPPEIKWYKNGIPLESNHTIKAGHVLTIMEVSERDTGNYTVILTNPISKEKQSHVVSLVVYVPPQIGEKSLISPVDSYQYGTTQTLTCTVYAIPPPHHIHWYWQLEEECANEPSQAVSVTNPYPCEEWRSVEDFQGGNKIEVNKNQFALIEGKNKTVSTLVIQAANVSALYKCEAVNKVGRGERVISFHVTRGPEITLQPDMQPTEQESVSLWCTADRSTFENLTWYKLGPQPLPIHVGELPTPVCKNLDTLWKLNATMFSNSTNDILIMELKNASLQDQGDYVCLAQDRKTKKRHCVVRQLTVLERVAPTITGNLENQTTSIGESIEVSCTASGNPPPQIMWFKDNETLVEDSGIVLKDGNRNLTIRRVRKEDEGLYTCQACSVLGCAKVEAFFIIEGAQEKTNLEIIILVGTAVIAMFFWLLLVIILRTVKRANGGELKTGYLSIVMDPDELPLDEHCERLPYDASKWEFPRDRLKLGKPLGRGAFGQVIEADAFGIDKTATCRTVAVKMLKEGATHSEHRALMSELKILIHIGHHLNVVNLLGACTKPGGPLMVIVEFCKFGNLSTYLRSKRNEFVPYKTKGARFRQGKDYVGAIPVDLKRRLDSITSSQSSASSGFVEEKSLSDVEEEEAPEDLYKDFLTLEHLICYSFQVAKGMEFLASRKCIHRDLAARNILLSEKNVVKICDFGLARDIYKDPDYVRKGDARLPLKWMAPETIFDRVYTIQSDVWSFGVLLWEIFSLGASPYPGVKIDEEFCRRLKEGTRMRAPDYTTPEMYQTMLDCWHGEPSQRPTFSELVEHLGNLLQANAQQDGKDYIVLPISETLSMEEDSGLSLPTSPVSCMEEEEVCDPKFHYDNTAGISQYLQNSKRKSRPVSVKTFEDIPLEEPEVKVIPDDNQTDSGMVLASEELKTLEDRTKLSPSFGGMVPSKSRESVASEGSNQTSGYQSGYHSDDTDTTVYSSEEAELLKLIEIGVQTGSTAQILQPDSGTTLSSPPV

SMILES | inhibition at 10 µM (SK-MEL-2) [%] | inhibition at 10 µM (ACHN) [%] | inhibition at 10 µM (OVCAR-4) [%] | inhibition at 10 µM (M14) [%] | inhibition at 10 µM (RPMI-8226) [%] | inhibition at 10 µM (NCI-H322M) [%] | inhibition at 10 µM (T-47D) [%] | inhibition at 10 µM (EKVX) [%] | inhibition at 10 µM (K-562) [%] | inhibition at 10 µM (LOX IMVI) [%] | inhibition at 10 µM (SNB-19) [%] | inhibition at 10 µM (DU-145) [%] | inhibition at 10 µM (VEGFR-2) [%] | other results
COc1cccc(C=NNC(=O)c2ccc3[nH]c(-c4ccc(Cl)cc4)nc3c2)c1 [8q, 2-(4-Chlorophenyl)-N'-(3-methoxybenzylidene)-1H-benzo[d]imidazole-5-carbohydrazide] | > 100 | > 100 | > 100 | > 100 | > 100 | > 100 | > 100 | > 100 | 98.1 | > 100 | > 100 | > 100 | 21.5 ± 1.54 | GI50 (SK-MEL-2; SK-MEL-2, Melanoma, five-dose): 3070 nM; GI50 (ACHN; ACHN, Renal cancer, five-dose): 4210 nM; GI50 (OVCAR-4; OVCAR-4, Ovarian cancer, five-dose): 3070 nM; GI50 (M14; M14, Melanoma, five-dose): 2150 nM; GI50 (RPMI-8226; RPMI-8226, Leukemia, five-dose): 1470 nM; GI50 (NCI-H322M; NCI-H322M, Non-small cell lung cancer, five-dose): 3570 nM; GI50 (T-47D; T-47D, Breast cancer, five-dose): 1950 nM; GI50 (EKVX; EKVX, Non-small cell lung cancer, five-dose): 3520 nM; GI50 (K-562; K-562, Leukemia, five-dose): 3140 nM; GI50 (LOX IMVI; LOX IMVI, Melanoma, five-dose): 1820 nM; GI50 (SNB-19; SNB-19, CNS cancer, five-dose): 2170 nM; GI50 (DU-145; DU-145, Prostate cancer, five-dose): 2040 nM
COc1ccc(-c2nc3cc(C(=O)NN=Cc4cccc(O)c4)ccc3[nH]2)cc1 [8i, N'-(3-Hydroxybenzylidene)-2-(4-methoxyphenyl)-1H-benzo[d]imidazole-5-carbohydrazide] | 37.5 | < 5 | 27.1 | 39.1 | 24.8 | 18.3 | 86.8 | 23.4 | 60.6 | 26.1 | 15.8 | 14 | 45.2 ± 2.22 | 
COc1ccc(OC)c(C=NNC(=O)c2ccc3[nH]c(-c4ccccc4)nc3c2)c1 [8f, N'-(2,5-Dimethoxybenzylidene)-2-phenyl-1H-benzo[d]imidazole-5-carbohydrazide] | 16.7 | 36.5 | 37.8 | 34.4 | 81.3 | 12.3 |  | 22.7 | 63 | 62.5 | 21.4 | 18.4 | 58.3 ± 2.98 | 
COc1ccc(-c2nc3cc(C(=O)NN=Cc4cc(OC)c(OC)c(OC)c4)ccc3[nH]2)cc1 [8n, 2-(4-Methoxyphenyl)-N'-(3,4,5-trimethoxybenzylidene)-1H-benzo[d]imidazole-5-carbohydrazide] |  | 9.17 | < 5 | 40.3 | 44.5 | < 5 | 38.1 | < 5 | 23.7 | 7.53 | 36.2 | < 5 | 20.8 ± 1.78 | 
COc1ccc(C=NNC(=O)c2ccc3[nH]c(-c4ccc(Cl)cc4)nc3c2)cc1O [8s, 2-(4-Chlorophenyl)-N'-(3-hydroxy-4-methoxybenzylidene)-1H-benzo[d]imidazole-5-carbohydrazide] | 76.1 | < 5 | 20.8 | 42.1 | > 100 | 18.1 |  | 37 | 50.3 | 44.9 | 39.7 | 16.2 | 26.7 ± 1.83 | 
COc1cc(C=NNC(=O)c2ccc3[nH]c(-c4ccccc4)nc3c2)cc(OC)c1OC [8g, 2-Phenyl-N'-(3,4,5-trimethoxybenzylidene)-1H-benzo[d]imidazole-5-carbohydrazide] | 21.8 | 33.8 | 21.9 | 43.3 | 86.9 | 15.7 |  | 12.2 | 30.4 | 56.5 | 25.2 | 17.1 | 47.9 ± 3.53 | 
O=C(NN=Cc1cccc(O)c1)c1ccc2[nH]c(-c3ccc(Cl)cc3)nc2c1 [8p, 2-(4-Chlorophenyl)-N'-(3-hydroxybenzylidene)-1H-benzo[d]imidazole-5-carbohydrazide] | 24 | < 5 | 15.7 | 25.4 | 56.7 | < 5 | 79.8 | 7.59 | 49.9 | 14.7 |  | < 5 | 22.3 ± 0.86 | 

Source: paper PMC10893631, “Receptor-based pharmacophore modeling, molecular docking, synthesis and biological evaluation of novel VEGFR-2, FGFR-1, and BRAF multi-kinase inhibitors” (BMC Chemistry, 2024)
